Test results taken from patent US20090088380A1, “GHRH ANALOGS AND THERAPEUTIC USES THEREOF” (priority 2007, published 2009).
Non-standard residues stand in square brackets, D forms with d. Residues, ends and D or L forms follow the SMILES beside them.

System: malnourished subjects with CKD
Test: Phase II CKD: 24-h urinary electrolytes
Type: in vivo, human
Conditions: for Calcium excretion: mean (SD) / Calcium/Creatinine ratio: median / EER Calcium: mean (SD) / EER Chloride: mean (SD) / EER Phosphate: mean (SD) / EER Potassium: mean (SD) / EER Sodium: mean (SD) / EFER Calcium: mean (SD) / EFER Chloride: mean (SD) / EFER Phosphate: mean (SD) / EFER Potassium: mean (SD) / EFER Sodium: mean (SD) / Fractional Pi reabsorption rate Pi/GFR: mean (SD) / Sodium excretion: mean (SD): ITT population
Experimental: Subjects collected 24-hour urine samples at screening, baseline (Days 0 to 1) and Days 28 to 29. All of the samples were analysed for creatinine and urea clearance (mL/min). The samples collected at baseline and on Day 28 were also analysed for proteinuria (Coumassie method), PNA, sodium, potassium, chloride, calcium and phosphate. GFR was calculated using the Cockcroft-Gault formula: Electrolyte excretion rates were calculated as follows: ? [formula] Electrolyte fractional excretion rates were calculated as follows: [formula]

[1] = GHRH vs placebo, changes from baseline to Day 28
[2] = GHRH vs placebo, ANCOVA, assuming log-normal distribution

CC[C@H](C)[C@H](NC(=O)[C@H](C)NC(=O)[C@H](CC(=O)O)NC(=O)[C@@H](C)NC(=O)[C@@H](N)Cc1ccc(O)cc1)C(=O)N[C@@H](Cc1ccccc1)C(=O)N[C@H](C(=O)N[C@@H](CC(N)=O)C(=O)N[C@@H](CO)C(=O)N[C@H](Cc1ccc(O)cc1)C(=O)N[C@@H](CCCNC(=N)N)C(=O)N[C@@H](CCCCN)C(=O)N[C@H](C(=O)N[C@@H](CC(C)C)C(=O)N[C@H](C)C(=O)N[C@@H](CCC(N)=O)C(=O)N[C@@H](CC(C)C)C(=O)N[C@@H](CO)C(=O)N[C@@H](C)C(=O)N[C@@H](CCCNC(=N)N)C(=O)N[C@@H](CCCCN)C(=O)N[C@@H](CCCCN)C(=O)N[C@@H](CC(C)C)C(=O)N[C@@H](CCC(N)=O)C(=O)N[C@@H](CC(=O)O)C(=O)N[C@H](C(=O)N[C@@H](CCSC)C(=O)N[C@@H](CO)C(=O)N[C@@H](CCCNC(=N)N)C(N)=O)[C@@H](C)CC)C(C)C)[C@@H](C)O [GHRH analog #5, [D-Ala^2, D-Tyr^10, D-Ala^15, Lys^22] hGHRH(1-29)-NH2] (H-Y[dA]DAIFTNS[dY]RKVL[dA]QLSARKKLQDIMSR-NH2)
Calcium excretion: mean (SD) (Baseline): 0.988 (0.916) mmol/m^2/24 h
Calcium/Creatinine ratio: median (Baseline): 0.145
EER Calcium: mean (SD) (Baseline): 0.027 (0.027) mmol/kg/24 h
EER Chloride: mean (SD) (Baseline): 2.213 (0.963) mmol/kg/24 h
EER Phosphate: mean (SD) (Baseline): 0.328 (0.220) mmol/kg/24 h
EER Potassium: mean (SD) (Baseline): 0.839 (0.332) mmol/kg/24 h
EER Sodium: mean (SD) (Baseline): 2.428 (1.134) mmol/kg/24 h
EFER Calcium: mean (SD) (Baseline): 1.933 (1.164) %
EFER Chloride: mean (SD) (Baseline): 3.636 (1.945) %
EFER Phosphate: mean (SD) (Baseline): 35.882 (14.172) %
EFER Potassium: mean (SD) (Baseline): 28.325 (13.618) %
EFER Sodium: mean (SD) (Baseline): 3.068 (1.658) %
Fractional Pi reabsorption rate Pi/GFR: mean (SD) (Baseline): 0.861 (0.291) mmol/ml
Sodium excretion: mean (SD) (Baseline): 89.90 (42.10) mmol/m^2/24 h
Calcium excretion: mean (SD) (Day 28): 1.295 (1.231) mmol/m^2/24 h
Calcium/Creatinine ratio: median (Day 28): 0.195
EER Calcium: mean (SD) (Day 28): 0.036 (0.036) mmol/kg/24 h
EER Chloride: mean (SD) (Day 28): 2.277 (1.028) mmol/kg/24 h
EER Phosphate: mean (SD) (Day 28): 0.273 (0.129) mmol/kg/24 h
EER Potassium: mean (SD) (Day 28): 0.656 (0.315) mmol/kg/24 h
EER Sodium: mean (SD) (Day 28): 2.624 (1.020) mmol/kg/24 h
EFER Calcium: mean (SD) (Day 28): 2.743 (2.157) %
EFER Chloride: mean (SD) (Day 28): 4.156 (2.541) %
EFER Phosphate: mean (SD) (Day 28): 35.968 (12.979) %
EFER Potassium: mean (SD) (Day 28): 26.766 (18.120) %
EFER Sodium: mean (SD) (Day 28): 3.359 (1.156) %
Fractional Pi reabsorption rate Pi/GFR: mean (SD) (Day 28): 0.829 (0.211) mmol/ml
Sodium excretion: mean (SD) (Day 28): 96.70 (37.30) mmol/m^2/24 h
Calcium excretion: adjusted difference [1]: −0.10 mmol/m^2/24 h
EER Calcium: adjusted difference [1]: −0.002 mmol/kg/24 h
EER Chloride: adjusted difference [1]: −0.136 mmol/kg/24 h
EER Phosphate: adjusted difference [1]: 0.020 mmol/kg/24 h
EER Potassium: adjusted difference [1]: −0.086 mmol/kg/24 h
EER Sodium: adjusted difference [1]: −0.020 mmol/kg/24 h
EFER Calcium: adjusted difference [1]: −0.48%
EFER Chloride: adjusted difference [1]: −1.13%
EFER Phosphate: adjusted difference [1]: −3.64%
EFER Potassium: adjusted difference [1]: −7.93%
Fractional Pi reabsorption rate Pi/GFR: adjusted difference [1]: -0.00006 mmol/mL
Sodium excretion: adjusted difference [1]: −1.18 mmol/m^2/24 h
Calcium/Creatinine ratio: ratio (ratio of means) [2]: 0.82
EFER Sodium: ratio (ratio of means) [2]: 0.79
Calcium excretion: mean difference between groups (in vivo): −0.10 mmol/m^2/24 h
Calcium:creatinine ratio: ratio of means (in vivo): 0.82
EER chloride: mean difference between groups (in vivo): −0.136 mmol/kg/24 h
EER phosphate: mean difference between groups (in vivo): 0.020 mmol/kg/24 h
EER potassium: mean difference between groups (in vivo): −0.086 mmol/kg/24 h
EER sodium: mean difference between groups (in vivo): −0.020 mmol/kg/24 h
EFER chloride: mean difference between groups (in vivo): −1.13%
EFER phosphate: mean difference between groups (in vivo): −3.64%
